Experimental data: publication PMC10269895 (Microbiology Spectrum, 2023)

Key:
[1] = Solubility in phosphate buffer (pH 7.4); type: physicochemical
Experimental: (i) Solubility in phosphate buffer (pH 7.4). For calibration, approximately 2 mg of GE81112A was weighed into a HPLC glass vial. DMSO was added to reach a target concentration of 2 mg/mL. Dilutions for calibration (10 μg/mL, 50 μg/mL, and 100 μg/mL) were prepared by adding adjusted volumes of DMSO and were correlated with ultraperformance liquid chromatography (UPLC)-UV peak areas at 220 nm. For solubility determinations, 2 mg of GE81112A was weighed into a HPLC glass vial. Phosphate buffer (pH 7.4) was added to reach a target concentration of 2 mg/mL. The vial was shaken for 16 h at 25°C, with protection from light, on an Eppendorf thermomixer at 600 rpm, followed by centrifugation at 10,000 rpm for 5 min at 25°C and filtration through a 0.45-μm filter. The filtrated supernatant was analyzed (UPLC-UV, λ = 220 nm), and the concentration of the analyte in the filtrate was calculated based on the peak area/real concentration ratio from previous calibration runs.

[2] = Solubility in 0.9% NaCl solution; type: physicochemical; settings: sodium chloride solution (0.9%)
Experimental: (ii) Solubility in 0.9% NaCl solution. To obtain a crystal-like form of the compound, GE81112A was dissolved in water followed by freeze-drying. Afterwards, 510 μg GE81112A was transferred to a glass vial with a microinsert, and 50 μL NaCl (0.9%) was added.

[3] = Metabolic stability in liver microsomes; type: in vitro ADME; settings: 5 μM
Experimental: Microsomal preparations from human and animal species were used at a protein concentration of 1 mg/mL, and the cofactor NADPH was added to a final concentration of 1 mM to assay for CYP and flavin-containing monooxygenase (FMO) lability. GE81112A at 5 μM was incubated for 20 min at 37°C. The enzymatic reaction was initiated by a rapid temperature increase in a water bath at 37°C. It was stopped by a rapid temperature decrease in an ice bath at 0°C and subsequent addition of 5 volumes of precooled acetonitrile (500 μL). Loss of parent GE81112A concentration, as a percentage, was determined using LC-MS/MS measurements, where 100% was the measurement at time zero.

[4] = Hepatic in vitro CLint in primary plated hepatocytes; type: in vitro ADME, human
Experimental: For hepatic in vitro CLint studies, primary cultures of cryopreserved human or animal species hepatocytes were seeded at a density of 200,000 cells per well and cultured overnight in collagen-coated 48-well plates in modified Ham’s F-12/William’s E medium. Disappearance kinetics of 5 μM GE81112A were sampled over a 24-h period. Dextromethorphan, midazolam, phenacetin, and tolbutamide (5 μM each) were used as reference compounds. Acetonitrile was used to terminate the incubation, and samples were centrifuged at 2,000 × g for 10 min after the addition of an appropriate internal standard. Supernatants were separated by LC using an AERIS peptide XB-C18 column (3.6 μm, 50 by 2.1 mm; Phenomenex, Aschaffenburg, Germany) with the following gradient of buffer A (water) and buffer B (acetonitrile): 0 to 5 min, 95% buffer A; 20 to 25 min, 5% buffer A. Both solvents were supplemented with 0.1% formic acid. The remaining parent peptide was quantified by LC-MS/MS using a Q Exactive hybrid quadrupole-Orbitrap device (Thermo Fisher Scientific). In vitro hepatic CLint was calculated as dose/area under the concentration-time curve from 0 to 24 h (AUC0–24), where dose is the concentration of GE81112A determined in the time zero sample and classified using reference compounds for low, moderate, or high CLint.

[5] = system: G-protein-coupled receptors, ion channels, NET and DAT panel; test: Pharmacological off-target profiling: in vitro binding assays (CEREP); parameters: species or system human unless stated (rat); settings: 0.01 mM
Excerpt: FIG 3 In vitro binding assays. Inhibitory effects of GE81112A were investigated for G-protein-coupled receptors for adenosine (A1 and A2A), […] (α1A, α2A, β1, and β2), cannabinoids (CB1 and CB2), dopamine (D1 and D2S), histamine (H1 and H2), acetylcholine (M1, M2, and M3), opioids (μ-MOP), and serotonin (5-HT1A, 5-HT2A, and 5-HT2B), the ion channels Gly (rat), nAChR (α4β2), nAChR (muscle type), PCP (rat), Cav1.2 (rat), Kv (rat), SKCa (rat), and GABACl (rat), NET (GenBank accession number P23975), and DAT (GenBank accession number Q01959).

hCaV3.1 = hCaV3.1 (Homo sapiens, UniProt O43497); test: Off-target ion channel profiling (automated patch clamp); type: cell-based; settings: concentrations up to 30 μM
Experimental: (§1) The effect of GE81112A on the hERG and other ion channels (hNaV1.5, hNaV1.2, hCaV3.1, or hKV4.3) was investigated using an automated patch-clamp method, as described by Houtmann et al. ([17]). GE81112A was diluted in a 5-fold 1:3 dilution series with a final concentration range of 30 to 0.12 μM in extracellular medium (150 mM NaCl, 4 mM KCl, 2 mM CaCl2, 1 mM MgCl2, 10 mM HEPES, 10 mM glucose, 0.06% Pluronic F-68, 0.3% residual DMSO). The hERG channel was constitutively expressed in Chinese hamster ovary (CHO) cells (CHO hERG Duo; B’SYS GmbH, Witterswil, Switzerland). CHO cells were grown at a concentration of 8 × 10^6 CHO cells/mL in QPlates (Sophion/Biolin Scientific, Ballerup, Denmark) in Ex-Cell animal component-free CHO medium (Sigma-Aldrich) supplemented with 25 mM HEPES, 100 U/mL penicillin-streptomycin, and 0.004% soybean trypsin inhibitor. To each well, we added extracellular medium containing the desired concentration of GE81112A. The peptide-hERG interaction was quantified by recording the tail current following repolarization of the hERG channels using a QPatch HTX station (Sophion/Biolin Scientific). The IC50 values were determined using the values from three replicates of the GE81112A concentration series with respect to the terfenadine citrate positive control and extracellular medium (blank).

hERG = molecular target: T1, hERG (Homo sapiens, UniProt Q12809); test: as above; type: cell-based; settings: concentrations up to 30 μM
T1 construct: host or cells: CHO
T1 sequence (Q12809 whole entry): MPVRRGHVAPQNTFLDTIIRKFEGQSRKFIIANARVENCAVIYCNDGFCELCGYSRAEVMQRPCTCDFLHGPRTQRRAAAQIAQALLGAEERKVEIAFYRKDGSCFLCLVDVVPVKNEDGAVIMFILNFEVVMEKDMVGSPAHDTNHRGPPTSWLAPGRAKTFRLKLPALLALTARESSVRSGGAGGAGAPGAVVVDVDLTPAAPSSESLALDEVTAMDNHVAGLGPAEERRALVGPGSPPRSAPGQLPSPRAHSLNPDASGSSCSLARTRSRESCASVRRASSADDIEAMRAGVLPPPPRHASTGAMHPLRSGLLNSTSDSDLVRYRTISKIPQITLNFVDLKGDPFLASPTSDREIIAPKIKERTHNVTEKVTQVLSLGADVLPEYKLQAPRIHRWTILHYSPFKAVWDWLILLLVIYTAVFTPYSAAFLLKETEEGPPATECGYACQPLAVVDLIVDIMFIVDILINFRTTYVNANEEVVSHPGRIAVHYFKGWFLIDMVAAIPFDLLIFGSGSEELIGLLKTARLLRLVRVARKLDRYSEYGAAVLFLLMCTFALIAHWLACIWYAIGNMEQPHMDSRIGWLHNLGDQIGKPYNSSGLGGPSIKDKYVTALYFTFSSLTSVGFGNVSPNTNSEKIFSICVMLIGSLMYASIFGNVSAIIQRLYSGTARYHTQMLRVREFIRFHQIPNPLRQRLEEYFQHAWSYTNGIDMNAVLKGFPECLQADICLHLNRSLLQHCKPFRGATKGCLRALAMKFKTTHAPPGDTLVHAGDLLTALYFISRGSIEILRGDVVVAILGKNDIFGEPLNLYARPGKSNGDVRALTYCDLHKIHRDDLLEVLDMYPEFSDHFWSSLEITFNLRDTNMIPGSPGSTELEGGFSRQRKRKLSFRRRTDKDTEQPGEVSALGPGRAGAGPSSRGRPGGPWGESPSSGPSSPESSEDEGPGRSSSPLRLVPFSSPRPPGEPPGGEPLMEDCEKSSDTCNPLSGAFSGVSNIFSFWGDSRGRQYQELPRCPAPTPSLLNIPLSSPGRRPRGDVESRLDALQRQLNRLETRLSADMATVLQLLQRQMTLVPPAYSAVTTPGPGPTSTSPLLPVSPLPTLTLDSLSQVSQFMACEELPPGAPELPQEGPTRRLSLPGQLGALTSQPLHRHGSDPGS
Experimental: as §1

hKV4.3 = hKV4.3 (Homo sapiens, UniProt Q9UK17); test: as above; type: cell-based; settings: concentrations up to 30 μM
Experimental: as §1

hNaV1.2 = hNaV1.2 (Homo sapiens, UniProt Q99250); test: as above; type: cell-based; settings: concentrations up to 30 μM
hNaV1.2, sequence (Q99250 whole entry): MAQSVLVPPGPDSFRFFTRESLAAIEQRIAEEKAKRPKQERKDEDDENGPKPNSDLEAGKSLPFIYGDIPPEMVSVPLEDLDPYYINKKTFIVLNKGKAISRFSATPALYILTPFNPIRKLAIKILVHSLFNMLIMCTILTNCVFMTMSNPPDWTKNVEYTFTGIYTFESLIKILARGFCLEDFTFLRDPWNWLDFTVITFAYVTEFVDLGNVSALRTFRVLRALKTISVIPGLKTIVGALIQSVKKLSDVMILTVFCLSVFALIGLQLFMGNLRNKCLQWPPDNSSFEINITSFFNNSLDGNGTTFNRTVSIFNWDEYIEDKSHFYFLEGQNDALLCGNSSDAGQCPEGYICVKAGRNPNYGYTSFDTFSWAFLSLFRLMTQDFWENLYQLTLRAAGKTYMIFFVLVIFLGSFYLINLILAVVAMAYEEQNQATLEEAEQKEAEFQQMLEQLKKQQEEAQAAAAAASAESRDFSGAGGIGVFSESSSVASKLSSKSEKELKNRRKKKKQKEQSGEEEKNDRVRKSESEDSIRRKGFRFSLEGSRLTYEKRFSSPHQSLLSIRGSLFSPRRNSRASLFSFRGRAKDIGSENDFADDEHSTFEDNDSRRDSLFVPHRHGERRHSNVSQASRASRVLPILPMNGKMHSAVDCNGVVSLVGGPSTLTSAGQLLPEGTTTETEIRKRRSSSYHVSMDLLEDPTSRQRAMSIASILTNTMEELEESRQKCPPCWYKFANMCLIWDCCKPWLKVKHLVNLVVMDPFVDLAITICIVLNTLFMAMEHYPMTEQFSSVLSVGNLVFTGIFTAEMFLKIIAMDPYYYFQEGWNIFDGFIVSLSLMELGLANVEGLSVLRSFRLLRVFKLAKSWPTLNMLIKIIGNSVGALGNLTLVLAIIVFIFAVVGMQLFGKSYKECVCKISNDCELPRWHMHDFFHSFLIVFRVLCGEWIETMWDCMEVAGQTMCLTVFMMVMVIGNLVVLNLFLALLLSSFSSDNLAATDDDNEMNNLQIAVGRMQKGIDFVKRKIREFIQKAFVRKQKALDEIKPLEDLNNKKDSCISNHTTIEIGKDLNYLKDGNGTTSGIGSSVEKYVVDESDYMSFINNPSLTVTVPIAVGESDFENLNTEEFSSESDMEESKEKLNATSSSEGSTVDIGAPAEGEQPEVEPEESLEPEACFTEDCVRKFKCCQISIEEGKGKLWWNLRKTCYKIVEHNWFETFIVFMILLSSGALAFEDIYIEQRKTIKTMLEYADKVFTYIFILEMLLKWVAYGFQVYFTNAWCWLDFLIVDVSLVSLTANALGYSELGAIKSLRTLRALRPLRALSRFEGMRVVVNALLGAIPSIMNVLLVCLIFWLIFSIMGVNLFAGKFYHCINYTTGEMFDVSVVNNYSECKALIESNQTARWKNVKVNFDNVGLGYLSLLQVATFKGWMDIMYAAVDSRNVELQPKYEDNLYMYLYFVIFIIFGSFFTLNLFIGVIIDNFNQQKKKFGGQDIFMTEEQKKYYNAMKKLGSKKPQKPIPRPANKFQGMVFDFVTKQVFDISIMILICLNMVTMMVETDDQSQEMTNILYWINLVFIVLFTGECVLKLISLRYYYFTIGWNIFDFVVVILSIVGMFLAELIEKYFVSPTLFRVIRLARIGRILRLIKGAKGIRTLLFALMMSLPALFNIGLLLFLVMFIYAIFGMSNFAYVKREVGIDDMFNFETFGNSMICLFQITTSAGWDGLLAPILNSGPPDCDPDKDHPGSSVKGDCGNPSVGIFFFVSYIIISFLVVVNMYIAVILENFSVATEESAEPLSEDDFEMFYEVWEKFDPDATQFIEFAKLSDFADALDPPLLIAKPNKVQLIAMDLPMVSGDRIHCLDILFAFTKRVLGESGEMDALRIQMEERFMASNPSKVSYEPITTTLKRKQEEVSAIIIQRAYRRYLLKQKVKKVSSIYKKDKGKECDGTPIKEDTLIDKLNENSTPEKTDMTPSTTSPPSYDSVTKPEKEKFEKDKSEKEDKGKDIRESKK
Experimental: as §1

hNaV1.5 = hNaV1.5 (Homo sapiens, UniProt Q14524); test: as above; type: cell-based; settings: concentrations up to 30 μM
hNaV1.5, sequence (Q14524 whole entry): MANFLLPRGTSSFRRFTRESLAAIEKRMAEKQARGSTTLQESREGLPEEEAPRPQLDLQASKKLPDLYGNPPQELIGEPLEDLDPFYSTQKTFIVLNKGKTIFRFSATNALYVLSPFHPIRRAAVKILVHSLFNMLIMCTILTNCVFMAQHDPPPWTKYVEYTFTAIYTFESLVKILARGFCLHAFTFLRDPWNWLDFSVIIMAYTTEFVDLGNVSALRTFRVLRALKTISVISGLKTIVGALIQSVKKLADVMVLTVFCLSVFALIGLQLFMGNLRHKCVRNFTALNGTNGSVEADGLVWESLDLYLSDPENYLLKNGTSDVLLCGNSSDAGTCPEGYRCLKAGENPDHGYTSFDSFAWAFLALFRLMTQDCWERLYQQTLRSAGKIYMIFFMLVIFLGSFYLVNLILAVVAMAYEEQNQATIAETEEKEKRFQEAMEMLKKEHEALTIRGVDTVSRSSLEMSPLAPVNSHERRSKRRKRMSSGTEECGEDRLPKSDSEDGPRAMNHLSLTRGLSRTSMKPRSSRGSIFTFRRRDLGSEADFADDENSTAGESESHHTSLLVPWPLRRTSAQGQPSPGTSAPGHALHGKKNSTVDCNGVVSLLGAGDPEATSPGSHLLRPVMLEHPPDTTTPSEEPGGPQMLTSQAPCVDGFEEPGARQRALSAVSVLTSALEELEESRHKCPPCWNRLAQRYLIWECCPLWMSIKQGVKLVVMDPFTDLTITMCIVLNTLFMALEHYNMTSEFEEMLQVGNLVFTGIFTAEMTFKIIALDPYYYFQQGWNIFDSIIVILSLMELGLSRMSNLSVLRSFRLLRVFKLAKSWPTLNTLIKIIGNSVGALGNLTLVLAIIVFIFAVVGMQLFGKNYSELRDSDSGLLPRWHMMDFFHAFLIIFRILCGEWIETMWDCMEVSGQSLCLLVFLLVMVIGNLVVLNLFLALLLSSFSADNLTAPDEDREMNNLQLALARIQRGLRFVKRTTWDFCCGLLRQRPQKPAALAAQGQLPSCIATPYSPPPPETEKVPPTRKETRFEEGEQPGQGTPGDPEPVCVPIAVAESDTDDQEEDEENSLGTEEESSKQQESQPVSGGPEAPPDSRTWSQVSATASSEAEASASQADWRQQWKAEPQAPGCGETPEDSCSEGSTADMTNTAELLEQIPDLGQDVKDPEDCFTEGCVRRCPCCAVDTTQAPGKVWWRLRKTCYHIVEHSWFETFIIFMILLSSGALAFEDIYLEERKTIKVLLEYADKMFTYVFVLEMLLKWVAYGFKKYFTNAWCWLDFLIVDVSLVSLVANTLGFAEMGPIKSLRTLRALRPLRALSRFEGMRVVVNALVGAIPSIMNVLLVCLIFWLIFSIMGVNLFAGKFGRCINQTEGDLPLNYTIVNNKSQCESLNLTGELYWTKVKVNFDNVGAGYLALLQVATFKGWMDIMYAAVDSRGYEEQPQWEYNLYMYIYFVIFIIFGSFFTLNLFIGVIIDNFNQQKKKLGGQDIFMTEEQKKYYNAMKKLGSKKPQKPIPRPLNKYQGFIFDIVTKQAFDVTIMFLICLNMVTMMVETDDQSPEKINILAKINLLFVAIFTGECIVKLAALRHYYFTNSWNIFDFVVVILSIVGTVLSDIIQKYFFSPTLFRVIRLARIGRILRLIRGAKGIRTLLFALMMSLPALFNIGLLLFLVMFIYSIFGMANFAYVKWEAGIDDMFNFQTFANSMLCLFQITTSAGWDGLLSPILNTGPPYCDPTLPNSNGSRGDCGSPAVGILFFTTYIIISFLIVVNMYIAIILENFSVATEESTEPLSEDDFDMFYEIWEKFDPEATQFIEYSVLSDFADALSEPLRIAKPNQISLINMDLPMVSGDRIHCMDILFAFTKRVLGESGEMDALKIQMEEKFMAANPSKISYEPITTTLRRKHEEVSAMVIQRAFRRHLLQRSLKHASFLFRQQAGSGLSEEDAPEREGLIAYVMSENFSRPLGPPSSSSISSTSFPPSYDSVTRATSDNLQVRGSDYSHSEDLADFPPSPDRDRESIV
Experimental: as §1

[6] = system: PDE3A, acetylcholinesterase, MAO-A, Na+/K+-ATPase; settings: 0.01 mM
Experimental: The targets were human recombinant proteins unless a different species is stated. All tests were conducted at a peptide concentration of 0.01 mM according to CEREP procedures.
Pharmacological off-target profiling was conducted by CEREP (Celle-Le’vescault, France) to investigate inhibitory effects against the targets specified in Fig. 3 and 4. […] We selected 19 G-protein-coupled receptors (acetylcholine, adenosine, androgens, cannabinoids, dopamine, histamine, opioids, and serotonin), eight ion channels (Gly, nicotinic acetylcholine receptor [nAChR], phencyclidine [PCP], Cav1.2, Kv, SKCa, and γ-aminobutyric acid-gated chloride channels [GABACl]), two transporters (dopamine transporter [DAT] and noradrenaline transporter [NET]), and four enzymes (phosphodiesterase [PDE], acetylcholinesterase, monoamine oxidase (MAO), and Na^+/K^+-ATPase) for testing.

NC(=O)OC[C@@H](O)C[C@H](NC(=O)[C@H]1NCCC[C@H]1O)C(=O)N[C@@H](Cc1c[nH]cn1)C(=O)N[C@H](C(=O)O)[C@H](O)c1cnc(Cl)[nH]1 [GE81112A]
solubility at 16 h [1]: > 500 µg/mL
solubility [2]: > 500 µg/mL
Oxidative metabolic lability ([3]; human liver microsomes): low
Oxidative metabolic lability ([3]; mouse liver microsomes): low
Oxidative metabolic lability ([3]; rat liver microsomes): low
Intrinsic clearance (CLint) ([4]; 5 μM, classified as low): 0.01 mL/(h × 1 million cells)
Directly glucuronic acid-conjugated metabolites ([4]; human primary plated hepatocytes): not observed
Off-target inhibitory effects, binding assays [5]: no critical inhibiting effect
Ion channel inhibition (hCaV3.1): did not inhibit
Ion channel inhibition (hERG): did not inhibit
Ion channel inhibition (hKV4.3): did not inhibit
Ion channel inhibition (hNaV1.2): did not inhibit
Ion channel inhibition (hNaV1.5): did not inhibit
Off-target inhibitory effects, enzyme and uptake assays [6]: no critical inhibiting effect
